According to patent publication US20250108036A1, “COMPOSITIONS FOR REMOVING SENESCENT CELLS AND USES THEREOF” (LIFECEUTIX CO., LTD., priority 2021, published 2025):

B1: LX-3103: CAS 9015-68-3 (protein, UniProt P00805 23-348, looked up)
L-asparaginase 2: LPNITILATGGTIAGGGDSATKSNYTVGKVGVENLVNAVPQLKDIANVKGEQVVNIGSQDMNDNVWLTLAKKINTDCDKTDGFVITHGTDTMEETAYFLDLTVKCDKPVVMVGAMRPSTSMSADGPFNLYNAVVTAADKASANRGVLVVMNDTVLDGRDVTKTNTTDVATFKSVNYGPLGYIHNGKIDYQRTPARKHTSDTPFDVSKLNELPKVGIVYNYANASDLPAKALVDAGYDGIVSAGVGNGNLYKSVFDTLATAAKTGTAVVRSSRVPTGATTQDAEVDDAKYGFVASGTLNPQKARVLLQLALTQTKDPQQIQQIFNQY

Columns and labels:
[1] = tested on: foreskin cells in which senescence was induced by doxorubicin; assay: CellTiter-Glo cell viability of doxorubicin-induced senescent foreskin cells (Examples 1-2, 10, 11, 13; Tables 4, 63, 65); type: cell-based, human; settings: doxorubicin-induced senescent foreskin cells, CellTiter-Glo, 0 μM = 100; for viability at 1.1 µM / viability at 10 µM / viability at […] / viability at 30 µM: Homo sapiens, 72 h, read-out: Survival (%)
Experimental: (§1) After 3 days, cell viability was measured using CellTiter-Glo Luminescent Cell Viability Assay (Promega) or light microscopy.

[2] = tested on: HMGN1; assay: HMGN1 ELISA in culture medium of foreskin cells (Examples 10, 11; Tables 62, 63, 64); type: cell-based, human; settings: 30 μM test compound, doxorubicin-treated foreskin cells, DMSO = 100; for activity at 30 µM: Homo sapiens, read-out: HMGN1
[3] = tested on: HMGN1; assay: HMGN1 ELISA in culture medium of A549 cancer cells (Example 12, Table 66); type: cell-based, human; settings: test compound 30 μM, ELISA, DMSO = 100; for activity at 30 µM: Homo sapiens, A549, doxorubicin-induced senescent A549 cells, read-out: HMGN1 (amount of HMGN1 secreted in the cell culture)
[4] = tested on: A549; assay: CellTiter-Glo cell viability of senescent A549 cancer cells (Example 12, Table 67); type: cell-based, human; settings: CellTiter-Glo; for viability at 1.1 µM / viability at 10 µM / viability at 30 µM: Homo sapiens, A549, doxorubicin-induced senescent A549 cancer cells, read-out: Survival (%); for viability at 30 µM: 30 μM test compound; for Survival (%): doxorubicin-induced senescent A549 cancer cells
[5] = tested on: p16, MMP3, IL6; assay: p16, MMP3, IL6 mRNA qRT-PCR in groin fat of obese mice given senescent cells killed by test compounds (Example 16, Table 72); type: in vivo, C57BL6J mice; settings: obese mice administered senescent cells whose death was induced by the test compound
Source text: To obtain preadipocytes, groin fat tissue was collected from an 8-week-old female C57BL6J mouse (purchased from KRIBB Laboratory Animal Resource Center). The fat tissue was cut into small pieces and treated with collagenase to decompose the fat tissue, then centrifuged to collect the stromal vascular fraction (SVF) containing preadipocytes. It was washed with a washing medium (HBSS, purchased from GenDEPOT; 3.5% Albumin Fraction V, purchased from GenDEPOT; 100 U/ml Penicillin & Streptomycin, purchased from Invitrogen), mixed again, and extracted by filtering through a 100 μm nylon mesh. The isolated preadipocytes were cultured in the designated medium (DMEM, purchased from GenDEPOT; 20% FBS, purchased from GenDEPOT; 100 U/ml Penicillin & Streptomycin, purchased from Invitrogen). In the same manner as Example 1, cells were treated with doxorubicin at a concentration of 250 nM for 24 hours and cultured for an additional 21 days to induce cell senescence. Cells were treated with doxorubicin at a concentration of 250 nM for 24 hours and cultured for an additional 21 days to induce cell senescence. By treating the test compounds in the same manner as in Example 13, it was confirmed using an optical microscope that the death of most senescent cells was induced. The killed preadipocytes were washed using PBS (purchased from Welgene) and then mixed with PBS at a concentration of 5×10^5 cells/200 μl. It was administered subcutaneously to 8-week-old female C57BL6J mice (purchased from KRIBB Laboratory Animal Resource Center). At 7 and 10 days after administration of the killed senescent cells, 2 million senescent preadipocytes were mixed in 200 μl of PBS and administered into the abdominal cavity of mice. After administration of killed senescent cells, obesity was induced in mice with a high-fat diet (DIO) for 8 weeks in the same manner as in Example 9-1. Afterwards, the mouse was sacrificed in the same manner as in Example 7-2, total RNA was extracted from the groin fat tissue, and qRT-PCR was performed and analyzed using the synthesized cDNA. […] The mRNA amount of p16, MMP3, and IL6 without administration of senescent cells whose death was induced by the test compounds was calculated as 100%, and the amount of p16, MMP3, and IL6 after administration of the senescent cells whose death was induced by the test compounds was compared with them. Furthermore, an open field test was performed to analyze aging-related frailty in mice using the same method as Example 7-7. […] The amount of activity evaluation without administration of senescent cells whose death was induced by the test compounds was calculated as 100% and compared it with the amount of activity evaluation after administration of senescent cells whose death was induced by the test compounds. […]

[6] = open field test in obese mice given senescent cells killed by test compounds (Example 16, Table 72); type: in vivo, C57BL6J mice; settings: obese mice administered senescent cells whose death was induced by the test compound
Source text: To obtain preadipocytes, groin fat tissue was collected from an 8-week-old female C57BL6J mouse (purchased from KRIBB Laboratory Animal Resource Center). The fat tissue was cut into small pieces and treated with collagenase to decompose the fat tissue, then centrifuged to collect the stromal vascular fraction (SVF) containing preadipocytes. It was washed with a washing medium (HBSS, purchased from GenDEPOT; 3.5% Albumin Fraction V, purchased from GenDEPOT; 100 U/ml Penicillin & Streptomycin, purchased from Invitrogen), mixed again, and extracted by filtering through a 100 μm nylon mesh. The isolated preadipocytes were cultured in the designated medium (DMEM, purchased from GenDEPOT; 20% FBS, purchased from GenDEPOT; 100 U/ml Penicillin & Streptomycin, purchased from Invitrogen). In the same manner as Example 1, cells were treated with doxorubicin at a concentration of 250 nM for 24 hours and cultured for an additional 21 days to induce cell senescence. Cells were treated with doxorubicin at a concentration of 250 nM for 24 hours and cultured for an additional 21 days to induce cell senescence. By treating the test compounds in the same manner as in Example 13, it was confirmed using an optical microscope that the death of most senescent cells was induced. The killed preadipocytes were washed using PBS (purchased from Welgene) and then mixed with PBS at a concentration of 5×10^5 cells/200 μl. It was administered subcutaneously to 8-week-old female C57BL6J mice (purchased from KRIBB Laboratory Animal Resource Center). At 7 and 10 days after administration of the killed senescent cells, 2 million senescent preadipocytes were mixed in 200 μl of PBS and administered into the abdominal cavity of mice. After administration of killed senescent cells, obesity was induced in mice with a high-fat diet (DIO) for 8 weeks in the same manner as in Example 9-1. Afterwards, the mouse was sacrificed in the same manner as in Example 7-2, total RNA was extracted from the groin fat tissue, and qRT-PCR was performed and analyzed using the synthesized cDNA. […] The mRNA amount of p16, MMP3, and IL6 without administration of senescent cells whose death was induced by the test compounds was calculated as 100%, and the amount of p16, MMP3, and IL6 after administration of the senescent cells whose death was induced by the test compounds was compared with them. Furthermore, an open field test was performed to analyze aging-related frailty in mice using the same method as Example 7-7. […] The amount of activity evaluation without administration of senescent cells whose death was induced by the test compounds was calculated as 100% and compared it with the amount of activity evaluation after administration of senescent cells whose death was induced by the test compounds.

[7] = tested on: senescent foreskin cells; assay: survival of senescent foreskin cells treated with medium supernatant (secreted fluid) of compound-killed cells (Example 13, Tables 68, 69); type: cell-based, human; settings: culture medium supernatant from dying senescent cells treated with compound at 30 μM, 90 μM or 270 μM; senescent foreskin cells
Experimental: as §1
During this additional culture, by checking with an optical microscope, etc., the medium supernatants containing secreted fluid from normally proliferating and senescent cells in which cell death was induced were obtained. The obtained medium supernatant was replaced with the medium of normally proliferating and senescent cells, respectively, and cell survival rate was measured after 3 days.

Molecule | viability at 1.1 µM ([1]; 1.1 μM test compound) [%] | activity at 30 µM [2] [%] | activity at 30 µM [3] [%] | viability at 1.1 µM ([4]; 1.1 μM test compound) [%] | IL6 mRNA (%) [5] | MMP3 mRNA (%) [5] | p16 mRNA (%) [5] | Open Field Test Time in Center (%) [6] | viability at 10 µM ([1]; 10 μM test compound) [%] | viability at […] ([1]; […] test compound) [%] | viability at 10 µM ([4]; 10 μM test compound) [%] | also measured
CCOc1ccccc1-n1c(CN2CCNCC2)nc2ccccc2c1=O [LX-1002] | 4.2 | 286 | 296 | 47.6 | 74.4 (±8.5) % | 68.1 (±13.8) % | 77.4 (±8.6) % | 141.1 (±18.3) % |  |  |  | 
CC1(C)CC[C@]2(NC(=O)C(C)(F)F)CC[C@]3(C)[C@H](C(=O)C=C4[C@@]5(C)C=C(C#N)C(=O)C(C)(C)[C@@H]5CC[C@]43C)[C@@H]2C1 [LX-2101, Omaveloxolone, reference compound] | 1.8 | 274 | 297 | 71.6 | 75.9 (±6.7) % | 68.3 (±16.4) % | 73.8 (±9.7) % | 144.9 (±26.6) % |  |  |  | 
Fc1ccc(-n2cc(CCCCN3CCC4(CC3)OCc3ccccc34)c3ccccc32)cc1 [LX-1102, Siramesine, reference compound] | 94 | 271 | 324 | 99.5 | 76.2 (±7.1) % | 95.4 (±9.6) % | 82.9 (±4.8) % | 146.2 (±17.1) % | 3.1 | 13.9 | 17.7 | 
C[C@H]1Cc2c([nH]c3ccccc23)[C@H](c2ccc(C(=O)N[C@]34CC5C[C@H](C[C@H](C5)C3)C4)cc2)N1C(=O)CCl [LX-411] | 0.2 | 300 | 335 | 1.8 | 71.9 (±7.2) % | 92.7 (±8.1) % | 79.7 (±6.6) % | 163 (±9) % |  |  |  | 
CCC(C)SSc1ncc[nH]1 (stereo not shown) [LX-307] | 101 | 258 | 305 | 101 | 87.2 (±10.5) % | 76.7 (±7.7) % | 73.1 (±8.5) % | 159 (±9.9) % | 14.5 | 85.6 | 72.5 | viability at 30 µM ([1]; 30 μM test compound): 3.5%; viability at 30 µM [4]: 7.6%
CCc1ccc(C(=O)C(C)CN2CCCCC2)cc1 (stereo not shown) [LX-1401, Eperisone, reference compound] | 96.4 | 296 | 287 | 99 | 72.8 (±10.4) % | 75.1 (±9.4) % | 83.4 (±6.9) % | 166.7 (±14.8) % | 10.2 | 88.1 | 49.9 | viability at 30 µM ([1]; 30 μM test compound): 9%; viability at 30 µM [4]: 22.8%
COc1cc(OC)cc(O[C@H]2OC3O[C@@]4(C)CCC5[C@H](C)CCC([C@H]2C)[C@@]35OO4)c1 (stereo partly shown) [LX-502] | 59.1 | 274 | 321 | 78.4 | 83.3 (±5.1) % | 77.4 (±8)^ % | 81.7 (±7.8) % | 126 (±20.4) % |  | 10.4 |  | 
B1 |  |  |  |  |  |  |  |  |  |  |  | Survival (%) ([1]; 1.1 μM test compound): 84.4%; Survival (%) ([1]; 10 μM test compound): 48.5%; Survival (%) ([1]; 30 μM test compound): 25%; Survival (%) ([1]; […] test compound): 71.2%; HMGN1 [2]: 243; HMGN1 (amount of HMGN1 secreted in the cell culture) ([3]; doxorubicin-induced senescent A549 cells): 254; Survival (%) ([4]; 1.1 μM test compound): 68.7%; Survival (%) ([4]; 10 μM test compound): 21.1%; Survival [7]: 64.3
